Experimental data from patent publication US20240417370A1, “LIPIDS FOR USE IN LIPID NANOPARTICLE FORMULATIONS” (Acuitas Therapeutics, Inc., priority 2023, published 2024).

Test system: human IgG in mouse serum
Assay: Immunoglobulin G (IgG) mRNA in vivo evaluation using lipid nanoparticle compositions
Set-up: species or system mice
Settings: LNP-formulated lipid, tail vein injection, μg IgG/mL serum 24 hours after administration; for Serum IgG @ 0.3 mg/kg: 0.3 mg mRNA/kg; for Serum IgG @ 1.0 mg/kg: 1.0 mg mRNA/kg
Protocol: A lipid of structure (I), DSPC, cholesterol and PEG-lipid are solubilized in ethanol at a molar ratio of 50:10:38.5:1.5 or 47.5:10:40.7:1.8. Lipid nanoparticles (LNP) are prepared at a total lipid to mRNA weight ratio of approximately 10:1 to 40:1. Briefly, the mRNA is diluted to 0.2 mg/mL in 10 to 50 mM citrate buffer, pH 4 to 6 or 10 to 25 mM acetate buffer, pH 4 to 6. Syringe pumps are used to mix the ethanolic lipid solution with the mRNA aqueous solution at a ratio of about 1:5 to 1:3 (vol/vol) with total flow rates above 15 mL/min. The ethanol is then removed, and the external buffer replaced with PBS by dialysis. Finally, the lipid nanoparticles are filtered through a 0.2 µm pore sterile filter.
Studies are performed in 6-8-week-old CD-1/ICR mice (Envigo, Charles River, or Inotiv) according to guidelines established by an institutional animal care committee (ACC) and the Canadian Council on Animal Care (CCAC). Varying doses of mRNA-lipid nanoparticle are systemically administered by tail vein injection and animals euthanized at a specific time point (e.g., 24 hours) post-administration. The whole blood is collected, and the serum subsequentially separated by centrifuging the tubes of the whole blood at 2000×g for 10 minutes at 4° C. and stored at −80° C. until use for analysis.
For immunoglobulin G (IgG) ELISA (Life Diagnostics Human IgG ELISA kit), the serum samples are diluted at 100 to 20,000 folds with 1× diluent solution. 100 μL of diluted serum is dispensed into anti-human IgG coated 96-well plate in duplicate alongside human IgG standards and incubated in a plate shaker at 150 rpm at 25° C. for 45 minutes. The wells are washed 5 times with 1× wash solution using a plate washer (400 μL/well). 100 μL of HRP conjugate is added into each well and incubated in a plate shaker at the same condition above. The wells are washed 5 times again with 1× wash solution using a plate washer (400 μL/well). 100 μL of TMB reagent is added into each well and incubated in a plate shaker at the same condition above. The reaction is stopped by adding 100 μL of Stop solution to each well. The absorbance is read at 450 nm (A450) with a microplate reader. The amount of human IgG in mouse serum is determined by plotting A450 values for the assay standard against human IgG concentration.
Representative compounds of the disclosure shown in Table 2 were formulated using the following molar ratio: 50% cationic lipid/10% distearoylphosphatidylcholine (DSPC)/38.5% Cholesterol/1.5% PEG lipid 2-[2-(ω-methoxy(polyethyleneglycol2000)ethoxy]-N,N-ditetradecylacetamide) or 47.5% cationic lipid/10% DSPC/40.7% Cholesterol/1.8% PEG lipid. Relative activity was determined by measuring luciferase expression in the liver 4 hours following administration via tail vein injection as described in Example 1 or by measuring the amount of human IgG in mouse serum as described in example 2. The activity was compared at a dose of 1.0 or 0.5 or 0.3 mg mRNA/kg and expressed as ng luciferase/g liver measured 4 hours after administration, as described in Example 1 or as μg IgG/mL serum measured 24 hours after administration, as described in Example 2. Compound numbers in Table 2 refer to the compound numbers of Table 1.

Structure (SMILES) | Serum IgG @ 0.3 mg/kg [µg/mL] | Serum IgG @ 1.0 mg/kg [µg/mL]
CCCCCCCCCCN(CCCCCCCCCC)C(=O)CCCCCCCN(CCCCCCCC(=O)N(CCCCCCCCCC)CCCCCCCCCC)[C@H]1C[C@@H](O)C1 [(1S, 3S) I-10, 8,8′-(((1S,3S)-3-hydroxycyclobutyl)azanediyl)bis(N,N-didecyloctanamide)] | 27.62 ± 9.67 | 187.67 ± 66.41
CCCCCCCCCCN(CCCCCCCCN(CCCCCCCC(=O)N(CCCCCCCCCC)CCCCCCCCCC)C[C@H]1C[C@@H](O)C1)C(=O)CCCCCCCCC [(1S, 3S) I-21, N-decyl-N-(8-((8-(didecylamino)-8-oxooctyl)(((1S,3S)-3-hydroxycyclobutyl)methyl)amino)octyl)decanamide] | 71.49 ± 12.31 | 
CCCCCCCCCCN(CCCCCCCCN(CCCCCCCCN(CCCCCCCCCC)C(=O)CCCCCCCCC)C[C@H]1C[C@@H](O)C1)C(=O)CCCCCCCCC [(1S, 3S) I-22, N,N′-(((((1S,3S)-3-hydroxycyclobutyl)methyl)azanediyl)bis(octane-8,1-diyl))bis(N-decyldecanamide)] | 50.48 ± 11.93 | 
CCCCCCCCCCN(CCCCCCCCCC)C(=O)CCCCCCCN(CCCCCCCC(=O)N(CCCCCCCCCC)CCCCCCCCCC)[C@H]1C[C@@H](CO)C1 [(1S, 3S) I-24, 8,8′-(((1S,3S)-3-(hydroxymethyl)cyclobutyl)azanediyl)bis(N,N-didecyloctanamide)] | 20.09 ± 5.90 | 57.71 ± 10.58
CCCCCCCCCCN(CCCCCCCCCC)C(=O)CCCCCCCN(CCCCCCCC(=O)N(CCCCCCCCCC)CCCCCCCCCC)[C@H]1CC[C@@H](O)CC1 [(1S, 4S) I-9, 8,8′-(((1s,4s)-4-hydroxycyclohexyl)azanediyl)bis(N,N-didecyloctanamide)] | 97.57 ± 19.26 | 257.42 ± 91.86
CCCCCCCCCCN(CCCCCCCCCC)C(=O)CCCCCCCN(CCCCCCCC(=O)N(CCCCCCCCCC)CCCCCCCCCC)[C@H]1CC[C@@H](CO)CC1 [(1S, 4S) I-23, 8,8′-(((1S,4S)-4-(hydroxymethyl)cyclohexyl)azanediyl)bis(N,N-didecyloctanamide)] | 34.48 ± 9.25 | 273.72 ± 52.70
CCCCCCCCCCN(CCCCCCCCCC)C(=O)CCCCCCCN(CCCCCCCC(=O)N(CCCCCCCCCC)CCCCCCCCCC)[C@H]1CC[C@@](C)(O)CC1 [(1S, 4S) I-25, 8,8′-(((1S,4S)-4-hydroxy-4-methylcyclohexyl)azanediyl)bis(N,N-didecyloctanamide)] | 39.96 ± 10.72 | 194.38 ± 27.83
CCCCCCCCCCN(CCCCCCCCN(CCCCCCCC(=O)N(CCCCCCCCCC)CCCCCCCCCC)[C@H]1CC[C@@H](O)CC1)C(=O)CCCCCCCCC [(1S, 4S) I-47, N-decyl-N-(8-((8-(didecylamino)-8-oxooctyl)((1s,4s)-4-hydroxycyclohexyl)amino)octyl)decanamide] | 55.53 ± 11.50 | 158.59 ± 40.38
CCCCCCCCCCN(CCCCCCCCCC)C(=O)C(F)CCCCCCN(CCCCCCC(F)C(=O)N(CCCCCCCCCC)CCCCCCCCCC)[C@H]1CC[C@@H](O)CC1 (stereo partly drawn) [(1S, 4S) I-49, 8,8′-(((1s,4s)-4-hydroxycyclohexyl)azanediyl)bis(N,N-didecyl-2-fluorooctanamide)] | 60.49 ± 26.40 | 332.8 ± 57.13
CCCCCCCCCC(CCCCCCCCC)NC(=O)CCCCCCCN(CCCCCCCC(=O)NC(CCCCCCCCC)CCCCCCCCC)[C@H]1CC[C@@H](O)CC1 [(1S, 4S) I-50, 8,8′-(((1s,4s)-4-hydroxycyclohexyl)azanediyl)bis(N-(nonadecan-10-yl)octanamide)] | 29.82 ± 7.79 | 
C=CCCCCCCCCN(CCCCCCCCCC)C(=O)CCCCCCCN(CCCCCCCC(=O)N(CCCCCCCCC=C)CCCCCCCCCC)[C@H]1CC[C@@H](O)CC1 [(1S, 4S) I-51, 8,8′-(((1s,4s)-4-hydroxycyclohexyl)azanediyl)bis(N-(dec-9-en-1-yl)-N-decyloctanamide)] | 80.37 ± 26.77 | 
CCCCCCCCCCCCN(CCCCCC)C(=O)CCCCCCCN(CCCCCCCC(=O)N(CCCCCC)CCCCCCCCCCCC)[C@H]1CC[C@@H](O)CC1 [(1S, 4S) I-52] | 40.24 ± 18.53 | 
C=CCCCCCCCCN(CCCCCCCCC=C)C(=O)CCCCCCCN(CCCCCCCC(=O)N(CCCCCCCCC=C)CCCCCCCCC=C)[C@H]1CC[C@@H](O)CC1 [(1S, 4S) I-53, 8,8′-(((1s,4s)-4-hydroxycyclohexyl)azanediyl)bis(N,N-di(dec-9-en-1-yl)octanamide)] | 81.56 ± 44.40 | 
CCCCCCCCC(CCCCCCCC)N(CCCC)C(=O)CCCCCCCN(CCCCCCCC(=O)N(CCCC)C(CCCCCCCC)CCCCCCCC)[C@H]1CC[C@@H](O)CC1 [(1S, 4S) I-54, 8,8′-(((1s,4s)-4-hydroxycyclohexyl)azanediyl)bis(N-butyl-N-(heptadecan-9-yl)octanamide)] | 43.22 ± 12.97 | 
CCCCCCCCCCCCN(CCCCCCCC)C(=O)CCCCCCCN(CCCCCCCC(=O)N(CCCCCCCCCC)CCCCCCCCCC)[C@H]1CC[C@@H](O)CC1 [(1S, 4S) I-55, N,N-didecyl-8-((8-(dodecyl(octyl)amino)-8-oxooctyl)((1s,4s)-4-hydroxycyclohexyl)amino)octanamide] | 72.2 ± 14.87 | 
CCCCCCCCCCCCN(CCCCCC)C(=O)CCCCCCCN(CCCCCCCC(=O)N(CCCCCCCCCC)CCCCCCCCCC)[C@H]1CC[C@@H](O)CC1 [(1S, 4S) I-56, N,N-didecyl-8-((8-(dodecyl(hexyl)amino)-8-oxooctyl)((1s,4s)-4-hydroxycyclohexyl)amino)octanamide] | 52.9 ± 17.00 | 
C=CCCCCCCCCN(CCCCCCCCC=C)C(=O)CCCCCCCN(CCCCCCCC(=O)N(CCCCCCCCCC)CCCCCCCCCC)[C@H]1CC[C@@H](O)CC1 [(1S, 4S) I-57, N,N-di(dec-9-en-1-yl)-8-((8-(didecylamino)-8-oxooctyl)((1s,4s)-4-hydroxycyclohexyl)amino)octanamide] | 84.4 ± 35.10 | 
CCCCCCCCCCN(CCCCCCCCCC)C(=O)CCCCCCCN(CCCCCCCC(=O)NC(CCCCCCCCC)CCCCCCCCC)[C@H]1CC[C@@H](O)CC1 [(1S, 4S) I-58, N,N-didecyl-8-(((1s,4s)-4-hydroxycyclohexyl)(8-(nonadecan-10-ylamino)-8-oxooctyl)amino)octanamide] | 61.75 ± 11.64 | 
CCCCCCCCCCN(CCCCCCCCCC)C(=O)CCCCCCCN(CCCCCCCC(=O)N(CCCC)C(CCCCCCCC)CCCCCCCC)[C@H]1CC[C@@H](O)CC1 [(1S, 4S) I-59, N-butyl-8-((8-(didecylamino)-8-oxooctyl)((1s,4s)-4-hydroxycyclohexyl)amino)-N-(heptadecan-9-yl)octanamide] | 84.23 ± 17.22 | 
CCCCCCCCCCN(CCCCCCCCCC)C(=O)CCCCCCCCCN(CCCCCCCCCC(=O)N(CCCCCCCCCC)CCCCCCCCCC)[C@H]1CC[C@@H](O)CC1 [(1S, 4S) I-60, 10,10′-(((1s,4s)-4-hydroxycyclohexyl)azanediyl)bis(N,N-didecyldecanamide)] | 15.65 ± 5.31 | 
CCCCCCCCCCCCN(CCCCCCCC)C(=O)CCCCCCCN(CCCCCCCC(=O)N(CCCCCCCC)CCCCCCCCCCCC)[C@H]1CC[C@@H](O)CC1 [(1S, 4S) I-62, 8,8′-(((1s,4s)-4-hydroxycyclohexyl)azanediyl)bis(N-dodecyl-N-octyloctanamide)] | 48.49 ± 8.83 | 
CCCCCCCCCCN(CCCCCCCCN(CCCCCCCCN(CCCCCCCCCC)C(=O)CCCCCCCCC)[C@H]1CC[C@@H](O)CC1)C(=O)CCCCCCCCC [(1S, 4S) I-63, N,N′-((((1s,4s)-4-hydroxycyclohexyl)azanediyl)bis(octane-8,1-diyl))bis(N-decyldecanamide)] | 39.32 ± 8.99 | 
